Measured values: US10392389B2, “Heterocyclic compounds for the inhibition of PASK” (BioEnergenix, LLC, priority 2012, dated 2019)

What was measured:
PASK (Invitrogen) = target: T1, PASK (Invitrogen) (Homo sapiens, UniProt Q96RG2); assay: PAS Kinase FRET Assay; format: biochemical; conditions: PAS kinase TR-FRET assay (665 nm/615 nm); read-out: IC50 Kinase Domain
T1 construct: IC50 Kinase Domain; purchased Invitrogen
Procedure, shortened: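 PASK phosphorylates a ULight-peptide with ATP in 50 mM HEPES, 10 mM MgCl2, 1 mM EGTA, 0.01% Tween-20, 2 mM DTT for 2 h at 25° C in the dark. Compounds are added as 4× serial dilutions (top 12×10^−5 M at 4×). After stopping, an Eu anti-phospho-substrate antibody is added for 1 h and TR-FRET is read at 665/615 nm.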

[1] = In vivo pharmacokinetics in the Sprague Dawley rat; conditions: formulation as in Table 5
Description: Pharmacokinetics of a PASK Inhibitor
The in vivo pharmacokinetics of Examples 12, 17, 43, and 51 were evaluated in the Sprague Dawley rat. Blood samples were collected at 0.083, 0.25, 0.5, 1, 2, 4, 6, 8, and 24 hours and the samples were analyzed for test compounds content using LC/MS/MS. The data was submitted to pharmacokinetic analysis using WinNonLin software and the observed and calculated pharmacokinetic parameters are shown in Table 5 for each compound.

PASK = target: T2, PASK (UniProt #Q96RG2; human recombinant N-terminal GST tagged construct, residues 879-1323) (Homo sapiens, UniProt Q96RG2); assay: PASK ATP Radiochemical Assay; format: biochemical; conditions: 33P-ATP, Myelin Basic Protein substrate, read-out: IC50 Kinase Domain
T2 construct: N-terminal GST tagged construct, residues 879-1323; GST (N); host or cells: insect cells
T2 sequence (Q96RG2 879-1323, stated change not applied): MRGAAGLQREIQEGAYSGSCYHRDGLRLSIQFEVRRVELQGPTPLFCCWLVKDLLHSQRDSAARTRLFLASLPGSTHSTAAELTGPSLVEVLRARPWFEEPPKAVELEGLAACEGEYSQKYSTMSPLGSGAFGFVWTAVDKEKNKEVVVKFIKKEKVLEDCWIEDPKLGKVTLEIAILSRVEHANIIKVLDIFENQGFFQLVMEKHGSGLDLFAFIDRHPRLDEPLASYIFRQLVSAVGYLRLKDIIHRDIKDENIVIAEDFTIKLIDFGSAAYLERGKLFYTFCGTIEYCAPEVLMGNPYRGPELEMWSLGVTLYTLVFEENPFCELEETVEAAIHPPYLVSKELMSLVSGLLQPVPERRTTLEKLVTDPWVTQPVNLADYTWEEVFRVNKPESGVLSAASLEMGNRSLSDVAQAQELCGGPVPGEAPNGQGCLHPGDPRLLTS
Description: Biochemical Assay for hPASK Activity
PASK ATP Radiochemical Assay
(§1) Purified PASK (UniProt #Q96RG2; human recombinant N-terminal GST tagged construct, residues 879-1323) from insect cells (final concentration 5 nM) is added to freshly prepared Base Reaction Buffer containing 20 mM HEPES (pH 7.5), 10 mM MgCl2, 1 mM EGTA, 0.02% Brij35, 0.02 mg/ml BSA, 0.1 mM Na3VO4, 2 mM DTT, 1% DMSO and Myelin Basic Protein (20 μM final). Test compounds in DMSO are then added and the mixture, followed by delivery of ^33P-ATP (specific activity 0.01 μCi/μl final) to initiate the reaction. The kinase reaction is incubated for 120 min at room temperature. The entire reaction mixture is washed through onto a P81 Phosphocellulose paper and washed three times for 10 minutes in 75 mM phosphoric acid and once in methanol prior to drying and scintillation counting.

[2] = target: T3, CK2a2 (NP_001887; human full-length protein, GST tagged) (Homo sapiens, UniProt P19784); assay: Biochemical Assay for CK2 Activity; conditions: 33P-ATP radiochemical assay, CK2 sub [RRRDDDSDDD]
T3 construct: human full-length protein, GST tagged; GST; host or cells: insect cells
T3 sequence (P19784 whole entry): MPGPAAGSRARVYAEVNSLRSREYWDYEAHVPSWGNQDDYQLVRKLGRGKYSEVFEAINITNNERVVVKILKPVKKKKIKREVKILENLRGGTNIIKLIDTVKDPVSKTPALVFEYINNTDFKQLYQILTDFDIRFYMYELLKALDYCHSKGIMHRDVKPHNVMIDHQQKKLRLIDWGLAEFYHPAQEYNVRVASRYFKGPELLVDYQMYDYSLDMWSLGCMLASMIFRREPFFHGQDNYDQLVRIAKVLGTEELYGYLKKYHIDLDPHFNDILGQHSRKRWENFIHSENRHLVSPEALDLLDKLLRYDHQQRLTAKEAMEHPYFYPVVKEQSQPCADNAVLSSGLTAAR
Description: Biochemical Assay for CK2 Activity
as §1, with “Purified CK2a2 (NP_001887;” for “Purified PASK (UniProt #Q96RG2;”, “human full-length protein,” for “human recombinant N-terminal”, “GST tagged)” for “GST tagged construct, residues 879-1323)”, “concentration 1.2” for “concentration 5”, “mM Hepes” for “mM HEPES”, “and CK2 sub [RRRDDDSDDD]” for “and Myelin Basic Protein”

[3] = target: T4, PIM1 (NP_002639; human full-length protein, 6×His tagged) (Homo sapiens, UniProt P11309); assay: Biochemical Assay for PIM1 Activity; conditions: 33P-ATP radiochemical assay, S6K/Rsk2 peptide 2 substrate
T4 construct: human full-length protein, 6×His tagged; 6xHis; host or cells: insect cells
T4 sequence (P11309 whole entry): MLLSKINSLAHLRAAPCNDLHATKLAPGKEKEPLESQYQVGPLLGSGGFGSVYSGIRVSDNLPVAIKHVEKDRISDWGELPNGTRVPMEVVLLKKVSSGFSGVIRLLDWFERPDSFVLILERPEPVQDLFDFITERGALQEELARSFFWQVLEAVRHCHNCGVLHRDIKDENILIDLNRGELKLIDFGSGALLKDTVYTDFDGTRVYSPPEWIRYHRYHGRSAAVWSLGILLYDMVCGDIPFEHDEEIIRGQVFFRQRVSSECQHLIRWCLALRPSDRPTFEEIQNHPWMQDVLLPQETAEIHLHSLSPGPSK
Description: Biochemical Assay for PIM1 Activity
as §1, with “Purified PIM1 (NP_002639;” for “Purified PASK (UniProt #Q96RG2;”, “human full-length protein, 6×His tagged)” for “human recombinant N-terminal GST tagged construct, residues 879-1323)”, “concentration 1.0” for “concentration 5”, “mM Hepes” for “mM HEPES”, “and substrate S6K/Rsk2 peptide 2 [KKRNRTLTK]” for “and Myelin Basic Protein”, “activity 10” for “activity 0.01”

T1 sequence (Q96RG2 999-1251 limits assumed): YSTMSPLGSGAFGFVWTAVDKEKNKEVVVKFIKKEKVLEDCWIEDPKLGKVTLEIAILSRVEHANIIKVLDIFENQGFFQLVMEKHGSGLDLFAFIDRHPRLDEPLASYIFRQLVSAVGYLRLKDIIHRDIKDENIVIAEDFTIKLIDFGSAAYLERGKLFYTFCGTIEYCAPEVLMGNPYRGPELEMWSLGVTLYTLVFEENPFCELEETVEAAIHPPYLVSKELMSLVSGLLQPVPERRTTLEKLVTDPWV

Row | SMILES | IC50 (PASK (Invitrogen)) [µM] | Cl (clearance) ([1]; IV, 3 mg/kg) [mL/min/kg] | Vss (volume of distribution) ([1]; IV, 3 mg/kg) [L/kg] | t1/2 (half-life) ([1]; IV, 3 mg/kg) [h] | F (oral bioavailability) ([1]; PO, 10 mg/kg) [%] | Tmax (Time to maximum blood concentration after an oral dose) ([1]; PO, 10 mg/kg) [h] | t1/2 (half-life) ([1]; PO, 10 mg/kg) [h] | IC50 (PASK) [µM] | IC50 [2] [µM] | IC50 [3] [µM]
1 | CCn1ncc2cc(-c3cc(=O)n4ncc(-c5ncc(C)o5)c4[nH]3)ccc21 [Example 12, 5-(1-ethyl-1H-indazol-5-yl)-3-(5-methyl-1,3-oxazol-2-yl)-4H,7H-pyrazolo[1,5-a]pyrimidin-7-one] | ≤ 10 | 8.76 | 0.35 | 3.75 | 46.5 | 0.5 | 2.38 | – | – | –
2 | COc1cc(-c2cc(=O)n3ncc(-c4ncc(C)o4)c3[nH]2)ccc1Cl [Example 17, 5-(4-chloro-3-methoxyphenyl)-3-(5-methyl-1,3-oxazol-2-yl)-4H,7H-pyrazolo[1,5-a]pyrimidin-7-one] | ≤ 10 | 6.19 | 0.61 | 8.3 | 42 | 4 | 2.12 | ≤ 10 | ≤ 10 | ≤ 10
3 | CCn1ncc2cc(-c3cc(=O)n4ncc(-c5nc(C)no5)c4[nH]3)ccc21 [Example 43, 5-(1-ethyl-1H-indazol-5-yl)-3-(3-methyl-1,2,4-oxadiazol-5-yl)-4H,7H-pyrazolo[1,5-a]pyrimidin-7-one] | ≤ 10 | 23.9 | 0.719 | 1.62 | 44.7 | 0.5 | 3.35 | – | – | –
4 | COc1cc(-c2cc(=O)n3ncc(-c4ccnn4C)c3[nH]2)ccc1Cl [Example 51, 5-(4-chloro-3-methoxyphenyl)-3-(1-methyl-1H-pyrazol-5-yl)pyrazolo[1,5-a]pyrimidin-7(4H)-one] | ≤ 10 | 62 | 0.71 | 0.38 | 1.17 | 0.25 | 2.62 | – | – | –
5 | Cc1noc(-c2cnn3c(=O)cc(-c4ccc5c(cnn5C)c4)[nH]c23)n1 [Example 74, 3-(3-methyl-1,2,4-oxadiazol-5-yl)-5-(1-methyl-1H-indazol-5-yl)-4H,7H-pyrazolo[1,5-a]pyrimidin-7-one] | ≤ 10 | – | – | – | – | – | – | ≤ 10 | ≤ 10 | ≤ 10
6 | COc1cc(-c2cc(=O)n3ncc(-c4ccnn4C)c3[nH]2)ccc1F [Example 79, 5-(4-fluoro-3-methoxyphenyl)-3-(1-methyl-1H-pyrazol-5-yl)pyrazolo[1,5-a]pyrimidin-7(4H)-one] | ≤ 10 | – | – | – | – | – | – | ≤ 10 | ≤ 10 | ≤ 10
7 | Cn1ccc(-c2cnn3c(=O)cc(-c4ccc5c(cnn5C)c4)[nH]c23)n1 [Example 83, 5-(1-methyl-1H-indazol-5-yl)-3-(1-methyl-1H-pyrazol-3-yl)pyrazolo[1,5-a]pyrimidin-7(4H)-one] | ≤ 10 | – | – | – | – | – | – | ≤ 10 | ≤ 10 | ≤ 10
8 | CCn1ncc2cc(-c3cc(=O)n4ncc(-c5n[nH]cc5C)c4[nH]3)ccc21 [Example 84, 5-(1-ethyl-1H-indazol-5-yl)-3-(4-methyl-1H-pyrazol-3-yl)-4H,7H-pyrazolo[1,5-a]pyrimidin-7-one] | ≤ 10 | – | – | – | – | – | – | ≤ 10 | ≤ 10 | ≤ 10
9 | CCn1ncc2cc(-c3cc(=O)n4ncc(-c5c(C)cnn5C)c4[nH]3)ccc21 [Example 85, 3-(1,4-dimethyl-1H-pyrazol-5-yl)-5-(1-ethyl-1H-indazol-5-yl)-4H,7H-pyrazolo[1,5-a]pyrimidin-7-one] | ≤ 10 | – | – | – | – | – | – | ≤ 10 | ≤ 10 | ≤ 10
10 | CCn1ncc2cc(-c3cc(=O)n4ncc(-c5cc(C)no5)c4[nH]3)ccc21 [Example 86, 5-(1-ethyl-1H-indazol-5-yl)-3-(3-methylisoxazol-5-yl)pyrazolo[1,5-a]pyrimidin-7(4H)-one] | ≤ 10 | – | – | – | – | – | – | ≤ 10 | ≤ 10 | ≤ 10
11 | CCn1ncc2cc(-c3cc(=O)n4ncc(-c5oncc5C)c4[nH]3)ccc21 [Example 87, 5-(1-ethyl-1H-indazol-5-yl)-3-(4-methyl-1,2-oxazol-5-yl)-4H,7H-pyrazolo[1,5-a]pyrimidin-7-one] | ≤ 10 | – | – | – | – | – | – | ≤ 10 | ≤ 10 | ≤ 10
12 | Cc1cnc(-c2cnn3c(=O)cc(-c4ccc5onc(C)c5c4)[nH]c23)o1 [Example 91, 5-(3-methylbenzo[d]isoxazol-5-yl)-3-(5-methyloxazol-2-yl)pyrazolo[1,5-a]pyrimidin-7(4H)-one] | ≤ 10 | – | – | – | – | – | – | ≤ 10 | ≤ 10 | ≤ 10
13 | CCn1nccc1-c1cnn2c(=O)cc(-c3ccc4c(cnn4C)c3)[nH]c12 [Example 93, 3-(1-ethyl-1H-pyrazol-5-yl)-5-(1-methyl-1H-indazol-5-yl)pyrazolo[1,5-a]pyrimidin-7(4H)-one] | ≤ 10 | – | – | – | – | – | – | ≤ 10 | ≤ 10 | ≤ 10
14 | CCn1nccc1-c1cnn2c(=O)cc(-c3ccc(Cl)c(OCC(F)(F)F)c3)[nH]c12 [Example 94, 5-(4-chloro-3-(2,2,2-trifluoroethoxy)phenyl)-3-(1-ethyl-1H-pyrazol-5-yl)pyrazolo[1,5-a]pyrimidin-7(4H)-one] | ≤ 10 | – | – | – | – | – | – | ≤ 10 | ≤ 10 | ≤ 10
15 | CCn1nccc1-c1cnn2c(=O)cc(-c3ccc(Cl)c(Cl)c3)[nH]c12 [Example 95, 5-(3,4-dichlorophenyl)-3-(1-ethyl-1H-pyrazol-5-yl)pyrazolo[1,5-a]pyrimidin-7(4H)-one] | ≤ 10 | – | – | – | – | – | – | ≤ 10 | ≤ 10 | ≤ 10
16 | Cn1ccc(-c2cnn3c(=O)cc(-c4ccc(Cl)c(OCC(F)(F)F)c4)[nH]c23)n1 [Example 96, 5-(4-chloro-3-(2,2,2-trifluoroethoxy)phenyl)-3-(1-methyl-1H-pyrazol-3-yl)pyrazolo[1,5-a]pyrimidin-7(4H)-one] | ≤ 10 | – | – | – | – | – | – | ≤ 10 | > 10 | ≤ 10
17 | Cn1nccc1-c1cnn2c(=O)cc(-c3ccc(Cl)c(Cl)c3)[nH]c12 [Example 98, 5-(3,4-dichlorophenyl)-3-(1-methyl-1H-pyrazol-5-yl)pyrazolo[1,5-a]pyrimidin-7(4H)-one] | ≤ 10 | – | – | – | – | – | – | ≤ 10 | ≤ 10 | ≤ 10
18 | Cc1noc(-c2cnn3c(=O)cc(-c4ccc(Cl)c(Cl)c4)[nH]c23)n1 [Example 100, 5-(3,4-dichlorophenyl)-3-(3-methyl-1,2,4-oxadiazol-5-yl)-4H,7H-pyrazolo[1,5-a]pyrimidin-7-one] | ≤ 10 | – | – | – | – | – | – | ≤ 10 | ≤ 10 | ≤ 10
